Results on 13 molecules are retold here after patent publication US20110190246A1, “ESTRATRIENE DERIVATIVES COMPRISING HETEROCYCLIC BIOISOSTERES FOR THE PHENOLIC A-RING” (Bayer Schering Pharma Aktiengesellschaft, priority 2008, published 2011).

The test system of data set [1] is human cryopreserved hepatocytes. Description: Stability in hepatocytes. Type of data set: in vitro ADME. Conditions: maximal theoretical bioavailability. The protocol:
The metabolic stability of test compounds with respect to phase 1 and phase 2 metabolisms was investigated by incubation of the compounds with hepatocytes. These investigations were performed for characterisation of compounds in case of phase 2 metabolism is to be expected. […] After analytical workup the concentrations of the test compounds after different incubation periods were related to the initial concentration of the respective test compound (zero hour's time point). The resulting area under the concentration-time-curve of the test compound investigated in the assay is used to derive the respective Fmax value.

The test system of the next data set is hepatic gene CaBP. As to the kind of experiment: Induction of the hepatic gene CaBP (hepatic estrogenicity). Type of data set: in vivo. The note with it: dose response curves, FIGS. 1-3. An excerpt: Data regarding the uterine and hepatic activity of example 1 and example 4 in comparison to Ethinylestradiol are shown in FIGS. 1, 2, and 3. Dose response curves describing the increases in relative uterine weight (closed circles) and the induction of the hepatic gene CaBP (open circles) are shown for ethinylestradiol (FIG 1), example 1 (FIG. 2), and example 4 (FIG. 3). […] This may implicate that compounds of example 1 and 4 show lower hepatic estrogenicity if compared to Ethinylestradiol.

The target in data set [2] is T1, estrogen receptor α (ERα) (Homo sapiens, UniProt P03372).
T1 construct: made in house; host or cells: Hi5 insect cells (baculovirus)
Description: Binding to estrogen receptor α (competition with 3H-estradiol). Conditions: KF = IC50 of test compound / IC50 of estradiol. The protocol:
The ERα protein used in the binding assay was purified from cytosolic fractions of Hi5 cells transfected with recombinant bacuioviruses encoding either the human ERα. Aliquots of cytosolic fractions were stored at −80° C. and had protein concentrations of 5-7 mg/ml (as determined by the BCA method).
30 μl of cytosol were added leading to a final volume of 50 μl per well. […] The protein-bound radioactivity was measured by addition of 200 μl Microszint-40 (Canberra Packard) to each well using a TopCount scintillation counter.

Data set [3] addresses T2, ERα (Homo sapiens, UniProt P03372).
T2 sequence (P03372 1-595): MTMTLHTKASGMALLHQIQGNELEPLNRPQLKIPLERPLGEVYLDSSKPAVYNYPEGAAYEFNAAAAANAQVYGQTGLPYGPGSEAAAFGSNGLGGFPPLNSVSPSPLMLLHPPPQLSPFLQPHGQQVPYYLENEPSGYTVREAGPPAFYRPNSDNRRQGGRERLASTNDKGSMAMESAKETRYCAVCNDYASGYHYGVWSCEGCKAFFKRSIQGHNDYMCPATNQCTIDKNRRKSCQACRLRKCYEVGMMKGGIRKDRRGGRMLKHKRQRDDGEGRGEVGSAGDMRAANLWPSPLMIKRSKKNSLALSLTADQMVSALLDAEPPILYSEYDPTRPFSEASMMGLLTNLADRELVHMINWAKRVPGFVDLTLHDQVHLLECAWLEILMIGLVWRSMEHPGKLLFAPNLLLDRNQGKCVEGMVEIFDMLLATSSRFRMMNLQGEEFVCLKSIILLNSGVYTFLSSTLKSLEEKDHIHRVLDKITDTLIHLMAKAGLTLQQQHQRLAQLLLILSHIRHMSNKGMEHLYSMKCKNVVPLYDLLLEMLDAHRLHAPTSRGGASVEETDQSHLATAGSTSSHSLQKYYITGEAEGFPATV
Description: Transactivation assay in U2OS cells. The class given is cell-based. The note with it: U2OS cells transiently transfected with ERα and luciferase reporter, 24 hours.

Data set [4] deals with T2, ERα. Description: Induction of alkaline phosphatase in human endometrial Ishikawa cells. Type of data set: cell-based. Conditions: 72 hours, read-out: EC50 Alkaline phoshatase induction, Ishikawa cells. The protocol:
Alkaline phosphatase is an estrogen target gene in the normal uterine epithelium as well as in endometrial-derived cancer cells, such as Ishikawa cells. […]. Ishikawa cells (from European collection of cell cultures) were maintained in phenolred-free MEM with 5% FCS, 4 mM glutamine, 1% non, essential amino acids and 100 U/ml penicillin and 100 μg/ml streptomycin. […]. On the third day, the media were removed; cells were washed two times with 50 μl PBS and then frozen at −80° C. for 20 min. After thawing at room temperature for 10 min, cells were incubated with 100 μl of 1-Step PNPP reagent (Pierce) and incubated for 1.5 h at room temperature. OD was measured at 405 nm sing a Polarstar Optima. Dose response curves were generated using and ED50 values were calculated using Sigma plot.

The target of data set [5] is T3, ERα (Rattus norvegicus, UniProt P06211).
T3 construct: from tissue; host or cells: uterus of ovariectomized adult female Wistar rats (in vivo)
T3 sequence (P06211 1-600): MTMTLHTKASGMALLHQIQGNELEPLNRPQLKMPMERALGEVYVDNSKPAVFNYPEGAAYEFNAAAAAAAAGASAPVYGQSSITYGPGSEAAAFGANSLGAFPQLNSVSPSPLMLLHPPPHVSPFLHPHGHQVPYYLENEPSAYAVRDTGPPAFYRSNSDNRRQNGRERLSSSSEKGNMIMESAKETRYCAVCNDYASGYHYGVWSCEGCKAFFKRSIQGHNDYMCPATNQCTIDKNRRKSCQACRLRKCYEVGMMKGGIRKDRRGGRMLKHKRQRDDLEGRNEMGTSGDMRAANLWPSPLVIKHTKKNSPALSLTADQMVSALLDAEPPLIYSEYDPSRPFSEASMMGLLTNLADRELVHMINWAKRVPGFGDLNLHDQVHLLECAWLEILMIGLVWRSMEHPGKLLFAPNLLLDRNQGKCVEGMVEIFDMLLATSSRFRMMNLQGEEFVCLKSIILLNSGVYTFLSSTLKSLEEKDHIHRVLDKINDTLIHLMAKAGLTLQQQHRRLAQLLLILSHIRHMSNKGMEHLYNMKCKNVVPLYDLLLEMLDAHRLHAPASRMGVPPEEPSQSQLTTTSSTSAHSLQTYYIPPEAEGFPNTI
As to the kind of experiment: Stimulation of uterine growth in vivo in ovariectomized rats. Details: species or system Wistar rats. Conditions: for uterotrophic activity (increase in relative uterine weight): dose response curves, FIGS. 2-3.

For data set [6], the target named is T2, ERα. As to the kind of experiment: Transactivation assay in stably transfected MCF-7 cells (MVLN assay). The class given is cell-based. Details: MCF-7 cells endogenously expressing ERα; endogenous in cells; host or cells: MCF-7 stably transfected with vitellogenin-tk-luciferase reporter (MVLN). The method, then: To analyse activation of the ERα by diverse tool compounds in a second cellular system, we used MCF-7 cells endogenously expressing ERα and stably transfected with the estrogen-responsive vitellogenin-tk-luciferase reporter plasmid. […]. Luciferase activity was measured after addition of 25 μl steady-Glo in a TopCount. Dose response curves were generated and EC50 values were calculated using Sigma plot.

Setting [7] is: luciferase reporter, Table 2, read-out: MVLN-Transactivation (EC50 in nM).

Broadly, the EC50 is the concentration at which the effect is half-maximal.

Regarding `C[C@]12CC[C@@H]3c4ccc(O)cc4CC[C@H]3[C@@H]1CC[C@@H]2O` [Estradiol, reference compound], in data set [1], the “Fmax (calculated from hepatocyte stability)” value is given as 17%. Consider `C#C[C@]1(O)CC[C@H]2[C@@H]3CCc4cc(O)ccc4[C@H]3CC[C@@]21C` [Ethinylestradiol, reference compound], for which, in the data set on hepatic gene CaBP, the “induction of the hepatic gene CaBP” value was “significant induction of CaBP”.

For the molecule `C[C@]12CCC3c4ccc5[nH]ncc5c4CCC3C1CC[C@@H]2O` (stereo partly drawn) [Example 1, 2′H-Pyrazolo[3′,4′:3,4]estra-1,3,5(10)-trien-17β-ol], in data set [2], the “ERα binding [KF]” value is recorded as 1.6. Besides, the EC50 at ERα [3] came to 0.082 nM; at ERα [4], 0.759 nM; at ERα [6] (setting [7]) it was 1.41 nM; on ERα [6] (vitellogenin-tk-luciferase reporter, 24 hours, Table 1, read-out: EC50 ERα transactivation, MVLN assay), 1.42 nM. Further, the “uterotrophic activity (increase in relative uterine weight)” value at ERα [5] is recorded as “full uterotrophic activity”. The “ED50 Uterine growth” value at ERα [5] (ovariectomized Wistar rats, subcutaneously daily for 14 days, relative uterine weight) is given as 8.25 μg/kg bodyweight. Besides, the “Fmax (calculated from hepatocyte stability)” value in data set [1] is on record as 34%. Also, the “induction of the hepatic gene CaBP” value in the data set with hepatic gene CaBP is “do not stimulate this hepatic gene”. `C[C@]12CCC3c4ccc5[nH]ncc5c4CCC3C1CCC2=O` (some centres unmarked) [Example 2, 2′H-Pyrazolo[3′,4′:3,4]estra-1,3,5(10)-trien-17-one]: the EC50 on ERα [6] (setting [7]) was 12.6 nM. In the case of `C[C@]1(O)CCC2C3CCc4c(ccc5[nH]ncc45)C3CC[C@@]21C` (stereo partly drawn) [Example 3, 17α-Methyl-2′H-pyrazolo[3′,4′:3,4]estra-1,3,5(10)-trien-17β-ol], the EC50 at ERα [6] (setting [7]) turned out to be 3.53 nM. On to `C#C[C@]1(O)CCC2C3CCc4c(ccc5[nH]ncc45)C3CC[C@@]21C` (stereo partly drawn) [Example 4, 17α-Ethinyl-2′H-pyrazolo[3′,4′:3,4]estra-1,3,5(10)-trien-17β-ol], for which the “uterotrophic activity (increase in relative uterine weight)” value at ERα [5] is given as “full uterotrophic activity”. Moreover, the “induction of the hepatic gene CaBP” value in the data set on hepatic gene CaBP is recorded as “do not stimulate this hepatic gene”. Besides, the EC50 at ERα [6] (setting [7]) is 1.01 nM. Regarding `C=C[C@]1(O)CCC2C3CCc4c(ccc5[nH]ncc45)C3CC[C@@]21C` (stereo partly drawn) [Example 5, 17α-Vinyl-2′H-pyrazolo[3′,4′:3,4]estra-1,3,5(10)-trien-17β-ol], on ERα [6] (setting [7]), the EC50 turned out to be 3.72 nM. On the same count and under the same terms, to `CC[C@]1(O)CCC2C3CCc4c(ccc5[nH]ncc45)C3CC[C@@]21C` (stereo partly drawn) [Example 6, 17α-Ethyl-2′H-pyrazolo[3′,4′:3,4]estra-1,3,5(10)-trien-17β-ol] belongs 130 nM; to `C=CC[C@]1(O)CCC2C3CCc4c(ccc5[nH]ncc45)C3CC[C@@]21C` (stereo partly drawn) [Example 7, 17α-Allyl-2′H-pyrazolo[3′,4′:3,4]estra-1,3,5(10)-trien-17β-ol], 82.6 nM.

Take `CC#C[C@]1(O)CCC2C3CCc4c(ccc5[nH]ncc45)C3CC[C@@]21C` (stereo partly drawn) [Example 8, 17α-(Prop-1-inyl)-2′H-pyrazolo[3′,4′:3,4]estra-1,3,5(10)-trien-17β-ol]: on ERα [6] (setting [7]), the EC50 was 16.5 nM. For `C[C@]12CCC3c4ccc5[nH]ncc5c4CCC3C1CC[C@@]2(O)C(F)(F)F` (stereo partly drawn) [Example 9, 17α-Trifluoromethyl-2′H-pyrazolo[3′,4′:3,4]estra-1,3,5(10)-trien-17β-ol], at ERα [6] (setting [7]), the EC50 is 77.3 nM. The same measure, in the same setting: to `C[C@]12CCC3c4ccc5[nH]ncc5c4CCC3C1CC[C@@]2(O)C(F)(F)C(F)(F)F` (stereo partly drawn) [Example 10, 17α-Pentafluoroethyl-2′H-pyrazolo[3′,4′:3,4]estra-1,3,5(10)-trien-17β-ol] belongs 270 nM; to `C[C@]12CCC3c4ccc5[nH]nnc5c4CCC3C1CCC2=O` (some centres unmarked) [Example 11, 3′H-Triazolo[4′,5′:3,4]estra-1,3,5(10)-trien-17-on], 308 nM.
